In patent publication US20150211005A1, “MIRNA MODULATORS OF THERMOGENESIS” (APTAMIR THERAPEUTICS, INC., priority 2012, published 2015):

How the values were obtained:
[1] = tested on: human subcutaneous adipocytes; test: Phenotypic changes of mature adipocytes cultured two weeks, bright field microscopy; assay type: cell-based; details: day 28; for Average size of lipid droplet: change versus control (Ref); for Average size of lipid droplet / Picture field covered by adipocytes (% of control) / Cell area occupied by lipid droplets (%) / Number of lipid droplet per cell: 50 nM miRNA analogs, 10 μM CL316,243, 10 nM T3, 100 nM Rosiglitazone; for Picture field covered by adipocytes (% of control): Dharmafect 4; for Cell area occupied by lipid droplets (%): control 42%; for Number of lipid droplet per cell: control 68
Procedure: Human subcutaneous adipocytes were plated in 6-well plates at a density of 391,000 cells per well as described above. Using Dharmafect 4, these adipocytes were transfected at Day 14 with:
1. […] A negative control (mock transfection) 3.
At day 17, the cells were switched to maintenance medium, which was then changed every two-three days until day 28 when bright field microscopy pictures of the cells were taken.

UCP3 = test: RNA-Seq mRNA expression during pre-adipocyte differentiation: UCP3; assay type: cell-based, human; details: pre-adipocytes, 12 days, rosiglitazone 100 nM renewed every other day, miRNA analogs 25 nM, one transfection
Procedure: (§1) In order to assess the effect of miRNA analogs on human pre-adipocytes differentiation into mature adipocytes, human subcutaneous pre-adipocytes (SuperLot 0048 from 8 female donors, ZenBio, NC) were plated on Day 0 into 96-well plates and allowed to attach overnight in preadipocyte medium (DMEM/Ham's F-12 (1:1, v/v), HEPES buffer, Fetal bovine serum and Antibiotics). […] All treatments were in triplicate. Post transfection, the negative control was maintenance medium only and the positive control was maintenance medium with 100 nM of the PPARG agonist rosiglitazone. After 2 days, medium was removed and replaced with fresh maintenance medium. The maintenance medium then changed every two days until the end of the treatment period (Day 15). At the end of the treatment (total of 15 days in culture) cells were processed for Phenotyping and Genotyping Screening.
(§2) Profiling of mRNA changes occurring during the differentiation of human pre-adipocyte into mature adipocyte induced by rosiglitazone or miRNA analogs was performed by RNA-Seq technology. […]
(§3) Changes in mRNA expression of UCP1, 2 and 3 were also measured in the presence of rosiglitazone or miRNA analogs, as shown below in Table 18.

UCP1 = test: RNA-Seq mRNA expression during pre-adipocyte differentiation: UCP1; assay type: cell-based, human; details: pre-adipocytes, 12 days, rosiglitazone 100 nM renewed every other day, miRNA analogs 25 nM, one transfection
Procedure: as §1, §2, §3

| SMILES | Average size of lipid droplet [1] [%] | Picture field covered by adipocytes (% of control) [1] | Cell area occupied by lipid droplets (%) [1] [%] | Number of lipid droplet per cell [1] | cell density and browning appearance (bright field, FIG. 22) ([1]; in reference to the control condition) | mRNA Expression changes UCP3 (UCP3) [log ratios] | mRNA Expression changes UCP1 (UCP1) [log ratios] |
| --- | --- | --- | --- | --- | --- | --- | --- |
| C[C@H](Cc1ccc2c(c1)OC(C(=O)[O-])(C(=O)[O-])O2)NC[C@H](O)c1cccc(Cl)c1.[Na+].[Na+] [CL316,243] | −44 | +24% of control | 44 | 124 | increase in cell density and “browning” appearance |  |  |
| CN(CCOc1ccc(CC2SC(=O)NC2=O)cc1)c1ccccn1 (centres unmarked) [Rosiglitazone] | −19 | +198% of control | 57 | 113 |  | 0.26 | 15.70 |
